Test results: US20230096766A1, “AMINO ACID HAVING FUNCTIONAL GROUP CAPABLE OF INTERMOLECULAR HYDROGEN BONDING, PEPTIDE COMPOUND CONTAINING SAME AND METHOD FOR PRODUCTION THEREOF” (Chugai Seiyaku Kabushiki Kaisha, priority 2018, published 2023)
*1 amine or outer side, *2 acyl side, *3 side chain or, on linkers, in order; H or OH if unused. Where a SMILES comes first, the peptide text is derived from it. Bridges are numbered along the chain shown (N, C = ends). [ ]: non-standard residue; d: D form. The star is where a group is joined. ξ: configuration not given here. X11 = CNC(=O)c1ccc(CCN(CC(=O)[*:2])[*:1])cc1OC; NMePhe(3-Cl) = CN[C@@H](Cc1cccc(Cl)c1)C(=O)O; NMehPhe = CN[C@@H](CCc1ccccc1)C(=O)O; X6 = O=C([C@H](CCCCO)N[*:1])[*:2]; NMeF = CN[C@@H](Cc1ccccc1)C(=O)O; NMeGABA = CN(CCCC(=O)[*:2])[*:1]; Butyl(3-Me,3-OH) = CC(C)(O)CC*; NMeD = CN[C@@H](CC(=O)O)C(=O)O; CH2CH(OH)CF3 = OC(C*)C(F)(F)F; NMeL = CN[C@@H](CC(C)C)C(=O)O; Propyl(2R-OH) = C[C@@H](O)C*; Butyl(3S-OH) = C[C@H](O)CC*; NMeV = CN[C@H](C(=O)O)C(C)C; NMeAbu = CC[C@H](NC)C(=O)O; NMeA = CN[C@@H](C)C(=O)O; Piperidide = C1CCN(*)CC1; NBuGly = CCCCNCC(=O)O; NPrGly = CCCNCC(=O)O; ξS = NC(CO)C(=O)O; Sar = CNCC(=O)O; tBu = CC(C)(C)*

Test: in vitro
Details: human, Caco-2, Caco-2 (cm/sec)
Work on CC(C)C[C@@H]1NC(=O)[C@H](Cc2ccccc2)N(C)C(=O)[C@@H](C(C)C)NC(=O)C[C@@H](C(=O)N2CCCCC2)NC(=O)[C@H](CC(C)C)N(C)C(=O)[C@H](Cc2cccc(Cl)c2)N(C)C(=O)[C@H](COCCC(C)(C)O)NC(=O)[C@H](CC(C)C)N(C)C(=O)CN(C)C(=O)[C@H]([C@@H](C)O)NC(=O)[C@H](C(C)C)N(C)C1=O [AP52] ([dV][NMeF]L[NMeV]T[Sar][NMeL]S(Butyl(3-Me,3-OH))[NMePhe(3-Cl)][NMeL]D-Piperidide; lactam N-11) yielded a Papp of 1.7 ×10⁻⁶ cm/s.
CC(C)C[C@H]1C(=O)N[C@@H]([C@@H](C)O)C(=O)N(C)[C@@H](CC(C)C)C(=O)N(C)[C@@H](CC(C)C)C(=O)N[C@H](C(=O)N2CCCCC2)CC(=O)N(C)CCCC(=O)N(C)[C@@H](C(C)C)C(=O)NC(COCC[C@H](C)O)C(=O)N(C)[C@@H](Cc2ccccc2)C(=O)N(C)[C@@H](Cc2cccc(Cl)c2)C(=O)N[C@@H](COC(C)(C)C)C(=O)N1C (stereo partly drawn) [AP101] ([NMeGABA][NMeV][ξS](Butyl(3S-OH))[NMeF][NMePhe(3-Cl)]S(tBu)[NMeL]T[NMeL][NMeL]D-Piperidide; lactam N-11) showed a Papp of 0.59 ×10⁻⁶ cm/s.
Work on CCCCN1CC(=O)N(C)[C@@H](Cc2cccc(Cl)c2)C(=O)N(C)[C@@H](CC(C)C)C(=O)N[C@@H](COC[C@@H](C)O)C(=O)N(C)[C@@H](CC(C)C)C(=O)N[C@H](C(=O)N2CCCCC2)CC(=O)N(C)CC(=O)N(C)[C@@H](Cc2ccccc2)C(=O)N[C@@H]([C@@H](C)CC)C(=O)N(C)[C@@H](CC(C)C)C(=O)N[C@@H]([C@@H](C)O)C1=O [AP78] ([Sar][NMeF]I[NMeL]T[NBuGly][NMePhe(3-Cl)][NMeL]S(Propyl(2R-OH))[NMeL]D-Piperidide; lactam N-11) yielded a Papp of 0.24 ×10⁻⁶ cm/s.
With CCCCN1CC(=O)N(C)[C@@H](C)C(=O)N[C@@H](COC(C)(C)C)C(=O)N(C)[C@@H](CC(C)C)C(=O)N(CCc2ccc(C(=O)NC)c(OC)c2)CC(=O)N[C@H](C(=O)N2CCCCC2)CC(=O)N[C@H](CC(C)C)C(=O)N(C)[C@@H](Cc2ccccc2)C(=O)N[C@@H](CC(C)C)C(=O)N(C)[C@@H](CC(C)C)C(=O)N[C@@H]([C@@H](C)O)C1=O [AP220] ([dL][NMeF]L[NMeL]T[NBuGly][NMeA]S(tBu)[NMeL][X11]D-Piperidide; lactam N-11) the Papp was 0.8 ×10⁻⁶ cm/s.
For CCCN1CC(=O)N(C)[C@@H](CC(C)C)C(=O)N[C@H](C(=O)N2CCCCC2)CC(=O)N(C)[C@@H](C)C(=O)N[C@@H](CCCCO)C(=O)N(C)[C@@H](CC(C)C)C(=O)N(C)[C@@H](Cc2cccc(Cl)c2)C(=O)N[C@@H](C(C)C)C(=O)N(C)[C@@H](CCc2ccccc2)C(=O)N(C)[C@@H](CC(C)C)C(=O)N[C@@H]([C@@H](C)O)C1=O [Compound B05] ([NMeA][X6][NMeL][NMePhe(3-Cl)]V[NMehPhe][NMeL]T[NPrGly][NMeL]D-Piperidide; lactam N-11), the Papp was 0.26 ×10⁻⁶ cm/s.
In the case of CC(C)C[C@@H]1NC(=O)[C@H](Cc2ccccc2)N(C)C(=O)[C@H](COC(C)(C)C)NC(=O)[C@H](Cc2ccccc2)N(C)C(=O)[C@H](C)N(C)C(=O)[C@H](CC(C)C)N(C)C(=O)[C@@H](C)NC(=O)C[C@@H](C(=O)N2CCCCC2)N(C)C(=O)[C@H](Cc2ccccc2)N(C)C(=O)[C@H]([C@@H](C)O)NC(=O)[C@H](C(C)C)N(C)C1=O [pd208] ([dA][NMeL][NMeA][NMeF]S(tBu)[NMeF]L[NMeV]T[NMeF][NMeD]-Piperidide; lactam N-11), the Papp is reported as 1.7 ×10⁻⁶ cm/s.
CC(C)C[C@@H]1NC(=O)[C@H](CC(C)C)N(C)C(=O)[C@H](C)N(C)C(=O)C[C@@H](C(=O)N(C)[C@@H](Cc2ccccc2)C(=O)N[C@@H](C)C(=O)N2CCCCC2)NC(=O)[C@H]([C@@H](C)O)NC(=O)[C@H](CC(C)C)N(C)C(=O)[C@H](Cc2ccccc2)NC(=O)[C@H](Cc2ccccc2)N(C)C(=O)[C@H](CC(C)C)N(C)C1=O [pd218] ([NMeA][NMeL]L[NMeL][NMeF]F[NMeL]TD[NMeF]A-Piperidide; lactam N-9) showed a Papp of 1.1 ×10⁻⁶ cm/s.

Same assay, conditions: human, Caco-2, Caco-2 (cm/sec) Papp
Work on CC(C)C[C@H]1C(=O)N[C@@H](COC(C)(C)C)C(=O)N[C@@H]([C@@H](C)O)C(=O)N(C)[C@@H](Cc2ccccc2)C(=O)N[C@H](C(=O)N2CCCCC2)CC(=O)N[C@@H](C)C(=O)N(C)[C@@H](Cc2ccccc2)C(=O)N(C)[C@@H](C)C(=O)N(C)[C@@H](Cc2ccccc2)C(=O)N(C)[C@@H](CC(C)C)C(=O)N[C@@H](Cc2ccccc2)C(=O)N1C [pd237] (A[NMeF][NMeA][NMeF][NMeL]F[NMeL]S(tBu)T[NMeF]D-Piperidide; lactam N-11) yielded a Papp of 0.089 ×10⁻⁶ cm/s.

Same assay, conditions: human, Caco-2, Caco-2 (membrane permeability)
CC[C@H]1C(=O)N[C@@H](COC(C)(C)C)C(=O)N(C)[C@@H](Cc2ccccc2)C(=O)N(C)[C@@H](CC(C)C)C(=O)N[C@H](C(=O)N2CCCCC2)CC(=O)N[C@H](CC(C)C)C(=O)N(C)[C@@H](Cc2ccccc2)C(=O)N[C@@H](CC(C)C)C(=O)N(C)[C@@H](CC)C(=O)N[C@@H](COCC(O)C(F)(F)F)C(=O)N(C)CC(=O)N1C (stereo partly drawn) [Compound C10] ([dL][NMeF]L[NMeAbu]S(CH2CH(OH)CF3)[Sar][NMeAbu]S(tBu)[NMeF][NMeL]D-Piperidide; lactam N-11) gave a Papp of 0.95 ×10⁻⁶ cm/s.
